Data as given in US20220409620A1, “REDUCING IMMUNOGENICITY TO PEGLOTICASE” (Horizon Pharma Rheumatology LLC, priority 2016, published 2022).

Assay: MTX polyglutamates 1 to 5 in red blood cells, MIRROR OL
Assay type: in vivo, human
Details: during the treatment course; FIG. 2
Procedure: Blood samples were collected prior to pegloticase infusion on Day 1 and at the Weeks 4, 8, 22 and 36 Visits or at Day 1 and weeks 14, 24, and 36 visits during the Pegloticase+IMM for MTX Polyglutamate analysis for the open-label and randomized studies, respectively.
Methods: In the MIRROR OL trial, MTX (15 mg/week) was given orally 4 weeks prior to the first pegloticase dose and continued weekly, in combination with pegloticase 8 mg given intravenously every 2 weeks, for a treatment duration of up to 52 weeks. Pre-infusion samples were collected to measure MTX-PGs 1 to 5 in red blood cells at day 1, week 4, 8, 22, 24 and 36. […] Pegloticase concentrations in serum was measured using a validated enzymatic/fluorescence assay. The limit of quantification is 0.6 μg/mL. Anti-pegloticase/PEG IgG antibodies (ADA) were measured using a validated enzyme linked immunosorbent assay (ELISA). The analysis of MTX Polyglutamates was conducted by Exagen. The impact of MTX on pegloticase PK was evaluated by two methods: (1) Comparing pegloticase exposures (median Cmax and Cmin across visits) with MTX from the MIRROR OL trial to the observed levels in historical monotherapy Phase 3 studies (C0405 and C0406) (Lipsky et al., Arthritis Res Ther 16(2), 2014; Sundy et al., JAMA 306(7), 2011). […]

For `CN(Cc1cnc2nc(N)nc(N)c2n1)c1ccc(C(=O)N[C@@H](CCC(=O)O)C(=O)O)cc1` [MTX, methotrexate], the “Concentrations of MTX-PGs” value was “maintained”.
